In patent US11136317B2, “NADPH oxidase 4 inhibitors” (ACTELION PHARMACEUTICALS LTD, priority 2015, dated 2021):

Biological target: T1, human NOX4 (Homo sapiens, UniProt Q9NPH5)
T1 construct: The full-length human NOX4 (NM_016931.3) transcript was cloned; expressed in transfected cells
T1 sequence (Q9NPH5 1-578): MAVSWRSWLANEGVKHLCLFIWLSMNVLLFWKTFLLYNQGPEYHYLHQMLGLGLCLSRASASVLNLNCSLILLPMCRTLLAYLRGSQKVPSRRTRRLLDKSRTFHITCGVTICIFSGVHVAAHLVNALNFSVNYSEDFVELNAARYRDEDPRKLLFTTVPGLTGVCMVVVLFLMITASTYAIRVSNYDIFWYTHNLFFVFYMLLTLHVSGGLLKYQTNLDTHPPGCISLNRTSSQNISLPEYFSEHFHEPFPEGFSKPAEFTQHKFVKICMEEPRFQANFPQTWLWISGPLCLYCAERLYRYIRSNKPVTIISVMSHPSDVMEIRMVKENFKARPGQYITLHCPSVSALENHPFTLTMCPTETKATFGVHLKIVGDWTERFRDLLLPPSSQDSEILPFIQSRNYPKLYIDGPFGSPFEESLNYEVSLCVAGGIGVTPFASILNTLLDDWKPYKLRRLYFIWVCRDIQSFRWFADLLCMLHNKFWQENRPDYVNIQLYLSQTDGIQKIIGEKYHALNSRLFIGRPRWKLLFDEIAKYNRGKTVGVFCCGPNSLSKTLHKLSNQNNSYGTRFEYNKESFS
T1 sequence (P13498 1-195 partner): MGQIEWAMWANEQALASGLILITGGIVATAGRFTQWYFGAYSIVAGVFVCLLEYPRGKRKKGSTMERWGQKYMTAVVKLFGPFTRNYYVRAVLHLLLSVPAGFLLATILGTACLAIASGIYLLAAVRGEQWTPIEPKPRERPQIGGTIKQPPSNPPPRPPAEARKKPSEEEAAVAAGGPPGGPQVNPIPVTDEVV
Experiment: Amplex Red activity assay (cellular H2O2 formation in hNOX4 T-REx-293 cells)
Format: cell-based
Conditions: tet-induced 24 h, extracellular H2O2 by Amplex Red, 60 min 25° C., geometric mean if determined several times
Method in brief: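 Tet-induced (1 μg/mL, 24 h) HEK293 T-REx cells stably expressing full-length human NOX4, 20 000 cells/well, exposed to compounds (10 concentrations, 50 μM to 100 nM; 1.25% DMSO) for 60 min at 25°C. Extracellular H2O2 detected by Amplex Red resorufin fluorescence (ex 550/em 600 nm) versus vehicle; IC50 calculated.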

Compound	IC50
O=C(Nc1ccc2sc(N3CCCCC3)nc2c1)c1ccc2c(c1)CCO2 [Example 81, 2,3-Dihydro-benzofuran-5-carboxylic acid (2-piperidin-1-yl-benzothiazol-5-yl)-amide]	2.45 µM
O=C(Nc1ccc2sc(N3CCOCC3)nc2c1)c1ccc2c(c1)CCO2 [Example 82, 2,3-Dihydro-benzofuran-5-carboxylic acid (2-morpholin-4-yl-benzothiazol-5-yl)-amide]	2.35 µM
CN1CCN(c2nc3cc(NC(=O)c4ccc5c(c4)CCO5)ccc3s2)CC1 [Example 83, 2,3-Dihydro-benzofuran-5-carboxylic acid [2-(4-methyl-piperazin-1-yl)-benzothiazol-5-yl]-amide]	3.54 µM
O=C(Nc1ccc2sc(N3CCCC3)nc2c1)c1ccc2c(c1)CCO2 [Example 84, 2,3-Dihydro-benzofuran-5-carboxylic acid (2-pyrrolidin-1-yl-benzothiazol-5-yl)-amide]	1.32 µM
CCN(CC)c1nc2cc(NC(=O)c3ccc4c(c3)CCO4)ccc2s1 [Example 85, 2,3-Dihydro-benzofuran-5-carboxylic acid (2-diethylamino-benzothiazol-5-yl)-amide]	1.65 µM
O=C(Nc1ccc2sc(N3CC(F)(F)C3)nc2c1)c1ccc2c(c1)CCO2 [Example 87, 2,3-Dihydro-benzofuran-5-carboxylic acid [2-(3,3-difluoro-azetidin-1-yl)-benzothiazol-5-yl]-amide]	4.1 µM
O=C(Nc1ccc2sc(N3CCC(F)(F)C3)nc2c1)c1ccc2c(c1)CCO2 [Example 88, 2,3-Dihydro-benzofuran-5-carboxylic acid [2-(3,3-difluoro-pyrrolidin-1-yl)-benzothiazol-5-yl]-amide]	3.66 µM
O=C(Nc1ccc2sc(N3CCCC(F)(F)C3)nc2c1)c1ccc2c(c1)CCO2 [Example 89, 2,3-Dihydro-benzofuran-5-carboxylic acid [2-(3,3-difluoro-piperidin-1-yl)-benzothiazol-5-yl]-amide]	1.92 µM
O=C(Nc1ccc2sc(N3CCC34COC4)nc2c1)c1ccc2c(c1)CCO2 [Example 90, 2,3-Dihydro-benzofuran-5-carboxylic acid [2-(6-oxa-1-aza-spiro[3.3]hept-1-yl)-benzothiazol-5-yl]-amide]	0.361 µM
O=C(Nc1ccc2sc(N3CC4(COC4)C3)nc2c1)c1ccc2c(c1)CCO2 [Example 91, 2,3-Dihydro-benzofuran-5-carboxylic acid [2-(2-oxa-6-aza-spiro[3.3]hept-6-yl)-benzothiazol-5-yl]-amide]	4.33 µM
O=C(Nc1ccc2sc(N3CCS(=O)(=O)CC3)nc2c1)c1ccc2c(c1)CCO2 [Example 92, 2,3-Dihydro-benzofuran-5-carboxylic acid [2-(1,1-dioxo-1l6-thiomorpholin-4-yl)-benzothiazol-5-yl]-amide]	2.46 µM
CN(C)CCN(C)c1nc2cc(NC(=O)c3ccc4c(c3)CCO4)ccc2s1 [Example 93, 2,3-Dihydro-benzofuran-5-carboxylic acid {2-[(2-dimethylamino-ethyl)-methyl-amino]-benzothiazol-5-yl}-amide]	10.3 µM
COC1CCN(c2nc3cc(NC(=O)c4ccc5c(c4)CCO5)ccc3s2)C1 (stereo not drawn) [Example 94, 2,3-Dihydro-benzofuran-5-carboxylic acid [2-(3-methoxy-pyrrolidin-1-yl)-benzothiazol-5-yl]-amide]	3.29 µM
COC1CCN(c2nc3cc(NC(=O)c4ccc5c(c4)CCO5)ccc3s2)CC1 [Example 95, 2,3-Dihydro-benzofuran-5-carboxylic acid [2-(4-methoxy-piperidin-1-yl)-benzothiazol-5-yl]-amide]	2.14 µM
CC1(O)CN(c2nc3cc(NC(=O)c4ccc5c(c4)CCO5)ccc3s2)C1 [Example 96, 2,3-Dihydro-benzofuran-5-carboxylic acid [2-(3-hydroxy-3-methyl-azetidin-1-yl)-benzothiazol-5-yl]-amide]	2.67 µM
CN(C)C1CCN(c2nc3cc(NC(=O)c4ccc5c(c4)CCO5)ccc3s2)CC1 [Example 97, 2,3-Dihydro-benzofuran-5-carboxylic acid [2-(4-dimethylamino-piperidin-1-yl)-benzothiazol-5-yl]-amide]	6.3 µM
O=C(Nc1ccc2sc(N3CC[C@H](O)C3)nc2c1)c1ccc2c(c1)CCO2 [Example 98, (S)—N-(2-(3-hydroxypyrrolidin-1-yl)benzo[d]thiazol-5-yl)-2,3-dihydrobenzofuran-5-carboxamide]	2.53 µM
O=C(Nc1ccc2sc(N3CCC4(CC3)COC4)nc2c1)c1ccc2c(c1)CCO2 [Example 99, 2,3-Dihydro-benzofuran-5-carboxylic acid [2-(2-oxa-7-aza-spiro[3.5]non-7-yl)-benzothiazol-5-yl]-amide]	3.08 µM
CN(c1nc2cc(NC(=O)c3ccc4c(c3)CCO4)ccc2s1)C1CCN(C2COC2)CC1 [Example 100, 2,3-Dihydro-benzofuran-5-carboxylic acid {2-[methyl-(1-oxetan-3-yl-piperidin-4-yl)-amino]-benzothiazol-5-yl}-amide]	3.39 µM
O=C(Nc1ccc2sc(N3CCCC4(COC4)C3)nc2c1)c1ccc2c(c1)CCO2 [Example 101, 2,3-Dihydro-benzofuran-5-carboxylic acid [2-(2-oxa-6-aza-spiro[3.5]non-6-yl)-benzothiazol-5-yl]-amide]	2.37 µM
O=C(Nc1ccc2sc(N3CCN(C4COC4)CC3)nc2c1)c1ccc2c(c1)CCO2 [Example 102, 2,3-Dihydro-benzofuran-5-carboxylic acid [2-(4-oxetan-3-yl-piperazin-1-yl)-benzothiazol-5-yl]-amide]	9.17 µM
CN(c1nc2cc(NC(=O)c3ccc4c(c3)CCO4)ccc2s1)C1COC1 [Example 103, 2,3-Dihydro-benzofuran-5-carboxylic acid [2-(methyl-oxetan-3-yl-amino)-benzothiazol-5-yl]-amide]	3.21 µM
O=C(Nc1ccc2sc(N3CC4(CCO4)C3)nc2c1)c1ccc2c(c1)CCO2 [Example 104, 2,3-Dihydro-benzofuran-5-carboxylic acid [2-(1-oxa-6-aza-spiro[3.3]hept-6-yl)-benzothiazol-5-yl]-amide]	6.87 µM
CN(C)CC1CCN(c2nc3cc(NC(=O)c4ccc5c(c4)CCO5)ccc3s2)C1 (stereo not drawn) [Example 105, 2,3-Dihydro-benzofuran-5-carboxylic acid [2-(3-dimethylaminomethyl-pyrrolidin-1-yl)-benzothiazol-5-yl]-amide]	14.8 µM
CC(C)OC1CN(c2nc3cc(NC(=O)c4ccc5c(c4)CCO5)ccc3s2)C1 [Example 106, 2,3-Dihydro-benzofuran-5-carboxylic acid [2-(3-isopropoxy-azetidin-1-yl)-benzothiazol-5-yl]-amide]	9.39 µM
CCOCC1CCCN1c1nc2cc(NC(=O)c3ccc4c(c3)CCO4)ccc2s1 (stereo not drawn) [Example 107, 2,3-Dihydro-benzofuran-5-carboxylic acid [2-(2-ethoxymethyl-pyrrolidin-1-yl)-benzothiazol-5-yl]-amide]	9.51 µM
COC1CCCN(c2nc3cc(NC(=O)c4ccc5c(c4)CCO5)ccc3s2)C1 (stereo not drawn) [Example 108, 2,3-Dihydro-benzofuran-5-carboxylic acid [2-(3-methoxy-piperidin-1-yl)-benzothiazol-5-yl]-amide]	2.54 µM
